Values of other authors as cited in PMC8217170, “Phase Ib dose-escalation study of the hypoxia-modifier Myo-inositol trispyrophosphate in patients with hepatopancreatobiliary tumors” (Nature Communications, 2021).

Set-up: method as in Swissmedic special application Nr. SBH12-1310
Conditions: one cancer patient, monotherapy 5600 mg/m2 once a week for 5 weeks; ref Swissmedic special application Nr. SBH12-1310; cited from earlier work

Compound: O=P1(O)OC2C3OP(=O)(O)OP(=O)(O)OC3C3OP(=O)(O)OP(=O)(O)OC3C2OP(=O)(O)O1 (stereo not shown) [ITPP, Myo-inositol trispyrophosphate]
- Effect of the drug on the disease: No effect
